Test results as given in PubChem BioAssay AID1845204 (Molecular Pharmacology Branch, DTP, NCI, 2023).
pIC50: −log10 of the molar value.

Test system: HSSY-II tumor spheroid viability
Test: Anticancer human tumor HSSY-II cell line growth inhibition;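 further: spheroids exposed to compounds for seven days before reading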;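 on viability, T/C: percent of DMSO vehicle control viability so 100% = untreated level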
Details: spheroids with HUVEC and MSC; for pIC50: curve of first compound; for viability, T/C: stronger effect = lower value
Summary of the method: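 Complex spheroids of malignant cells with endothelial cells and mesenchymal stem cells; agents alone or combined, from near clinical Cmax (or 10 microM if unknown) down in half-log steps, 0.25% DMSO final.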

[1] = second compound 1 µM, first compound 0.0316 µM
[2] = second compound 1 µM, first compound 0.1 µM
[3] = second compound 1 µM, first compound 0.316 µM
[4] = second compound 1 µM, first compound 1 µM
[5] = second compound 1 µM, first compound 3.16 µM
[6] = second compound 1 µM, first compound 10 µM
[7] = second compound 3.16 µM, first compound 0.0316 µM
[8] = second compound 3.16 µM, first compound 0.1 µM
[9] = second compound 3.16 µM, first compound 0.316 µM
[10] = second compound 3.16 µM, first compound 1 µM
[11] = second compound 3.16 µM, first compound 3.16 µM
[12] = second compound 3.16 µM, first compound 10 µM
[13] = second compound 10 µM, first compound 0.0316 µM
[14] = second compound 10 µM, first compound 0.1 µM
[15] = second compound 10 µM, first compound 0.316 µM
[16] = second compound 10 µM, first compound 1 µM
[17] = second compound 10 µM, first compound 3.16 µM
[18] = second compound 10 µM, first compound 10 µM
[19] = second compound 31.6 µM, first compound 0.0316 µM
[20] = second compound 31.6 µM, first compound 0.1 µM
[21] = second compound 31.6 µM, first compound 0.316 µM
[22] = second compound 31.6 µM, first compound 1 µM
[23] = second compound 31.6 µM, first compound 3.16 µM
[24] = second compound 31.6 µM, first compound 10 µM
[25] = second compound 100 µM, first compound 0.0316 µM
[26] = second compound 100 µM, first compound 0.1 µM
[27] = second compound 100 µM, first compound 0.316 µM
[28] = second compound 100 µM, first compound 1 µM
[29] = second compound 100 µM, first compound 3.16 µM
[30] = second compound 100 µM, first compound 10 µM

Row | SMILES | pIC50 (second compound 1 µM) | pIC50 (second compound 3.16 µM) | pIC50 (second compound 10 µM) | pIC50 (second compound 31.6 µM) | pIC50 (second compound 100 µM) | viability, T/C [1] [%] | viability, T/C [2] [%] | viability, T/C [3] [%] | viability, T/C [4] [%] | viability, T/C [5] [%] | viability, T/C [6] [%] | viability, T/C [7] [%] | viability, T/C [8] [%] | viability, T/C [9] [%] | viability, T/C [10] [%] | viability, T/C [11] [%] | viability, T/C [12] [%] | viability, T/C [13] [%] | viability, T/C [14] [%] | viability, T/C [15] [%] | also measured
1 | CC(C)n1c(=O)n(C)c2cnc3cc(F)c(-c4ccc(OCCCN5CCCCC5)nc4)cc3c21 + Cn1nnc2c(C(N)=O)ncn2c1=O | 5.19 | 5.17 | 5.18 | 5.23 | 5.02 | 100 | 97.4 | 97.2 | 89.6 | 72.7 | 35.8 | 102 | 102 | 98 | 93.7 | 70.1 | 39.2 | 103 | 107 | 97.4 | viability, T/C [16]: 97.4%; viability, T/C [17]: 73.7%; viability, T/C [18]: 36%; viability, T/C [19]: 108%; viability, T/C [20]: 96%; viability, T/C [21]: 92.4%; viability, T/C [22]: 89.9%; viability, T/C [23]: 70.9%; viability, T/C [24]: 32.4%; viability, T/C [25]: 88.5%; viability, T/C [26]: 92.9%; viability, T/C [27]: 86.5%; viability, T/C [28]: 76.1%; viability, T/C [29]: 69.6%; viability, T/C [30]: 48.4%
2 | CC1COCCN1c1cc(-c2ccnn2C)c2ccnc(-c3ccn[nH]3)c2n1 (stereo not given) + Cn1nnc2c(C(N)=O)ncn2c1=O | > 7.50 | > 7.50 | > 7.50 | > 7.50 | > 7.50 | 29 | 6.4 | 2.45 | 1.92 | 1.78 | 2.4 | 25.1 | 6.11 | 2.71 | 2.03 | 1.93 | 2.28 | 19 | 6.18 | 2.63 | viability, T/C [16]: 2%; viability, T/C [17]: 1.88%; viability, T/C [18]: 2.59%; viability, T/C [19]: 16.2%; viability, T/C [20]: 4.45%; viability, T/C [21]: 2.43%; viability, T/C [22]: 2%; viability, T/C [23]: 2.1%; viability, T/C [24]: 2.35%; viability, T/C [25]: 6.2%; viability, T/C [26]: 4.15%; viability, T/C [27]: 2.65%; viability, T/C [28]: 2.04%; viability, T/C [29]: 1.79%; viability, T/C [30]: 1.82%
3 | COc1cc(C)[nH]c(=O)c1CN1CCc2c(Cl)cc(C(OC)C3COC3)c(Cl)c2C1=O (stereo not given) + Cn1nnc2c(C(N)=O)ncn2c1=O | < 5.00 | < 5.00 | < 5.00 | < 5.00 | < 5.00 | 96.7 | 93.1 | 69.1 | 69.2 | 63.2 | 63 | 96.7 | 84.2 | 76.5 | 66.2 | 64.6 | 60.9 | 95.3 | 94.2 | 75.6 | viability, T/C [16]: 66.8%; viability, T/C [17]: 62.7%; viability, T/C [18]: 63%; viability, T/C [19]: 99.7%; viability, T/C [20]: 96.3%; viability, T/C [21]: 76.9%; viability, T/C [22]: 66.8%; viability, T/C [23]: 65.8%; viability, T/C [24]: 64.6%; viability, T/C [25]: 96.7%; viability, T/C [26]: 91.4%; viability, T/C [27]: 74.8%; viability, T/C [28]: 67.4%; viability, T/C [29]: 68.9%; viability, T/C [30]: 63.7%
4 | COc1ccc([C@@H](O)c2cc(-c3ncnc4cc(N5CCOCC5)ccc34)c(F)cc2Cl)nn1 + Cn1nnc2c(C(N)=O)ncn2c1=O | 5.65 | 5.72 | 5.72 | 5.73 | 5.97 | 102 | 95.8 | 90.8 | 64.5 | 44 | 13.5 | 100 | 94.3 | 88.7 | 63.5 | 39.4 | 16.8 | 94 | 92.1 | 89.6 | viability, T/C [16]: 66.6%; viability, T/C [17]: 36.8%; viability, T/C [18]: 15.9%; viability, T/C [19]: 98%; viability, T/C [20]: 98.2%; viability, T/C [21]: 81.5%; viability, T/C [22]: 64.8%; viability, T/C [23]: 38.5%; viability, T/C [24]: 20.6%; viability, T/C [25]: 83.2%; viability, T/C [26]: 83%; viability, T/C [27]: 70.7%; viability, T/C [28]: 48%; viability, T/C [29]: 32.3%; viability, T/C [30]: 12.8%
5 | Cc1cc(C)c(CNC(=O)c2cc(-c3ccc(CN4CCOCC4)cc3)cc3c2cnn3C2CCCC2)c(=O)[nH]1 + Cn1nnc2c(C(N)=O)ncn2c1=O | < 5.00 | < 5.00 | < 5.00 | < 5.00 | < 5.00 | 98.4 | 105 | 92.8 | 97.2 | 91.4 | 79.8 | 101 | 99.1 | 95.1 | 98.7 | 89.9 | 72.7 | 98 | 98.2 | 100 | viability, T/C [16]: 93.5%; viability, T/C [17]: 92.6%; viability, T/C [18]: 68.4%; viability, T/C [19]: 104%; viability, T/C [20]: 98%; viability, T/C [21]: 94.4%; viability, T/C [22]: 102%; viability, T/C [23]: 88.4%; viability, T/C [24]: 73.8%; viability, T/C [25]: 94%; viability, T/C [26]: 93.9%; viability, T/C [27]: 91%; viability, T/C [28]: 95.5%; viability, T/C [29]: 85.2%; viability, T/C [30]: 70.4%
6 | [2H]c1nc(C)nc([2H])c1-c1cc(NC[C@@H](C)c2cccc3c(C(=O)NC)ccnc23)ncn1 + Cn1nnc2c(C(N)=O)ncn2c1=O | < 5.00 | < 5.00 | < 5.00 | < 5.00 | < 5.00 | 103 | 101 | 100 | 96.8 | 93.8 | 91.7 | 104 | 100 | 98.5 | 107 | 94.1 | 90.8 | 98.2 | 103 | 101 | viability, T/C [16]: 97.5%; viability, T/C [17]: 95.3%; viability, T/C [18]: 86.2%; viability, T/C [19]: 108%; viability, T/C [20]: 102%; viability, T/C [21]: 106%; viability, T/C [22]: 102%; viability, T/C [23]: 97.2%; viability, T/C [24]: 94.4%; viability, T/C [25]: 91.1%; viability, T/C [26]: 94.4%; viability, T/C [27]: 95.2%; viability, T/C [28]: 91.4%; viability, T/C [29]: 90.9%; viability, T/C [30]: 85%
